Measurements from patent US8637079B2, “Solid preparation comprising alogliptin and pioglitazone” (Takeda Pharmaceutical Company Limited, priority 2007, dated 2014).

Test: Chemical stability on storage: amount of benzoic acid remaining as compound (IA)
Type: physicochemical
Method: Compound (IA) (50 mg) of Comparative Example 1, the mixture (99.59 mg) of Comparative Example 2, and tablets of Example 1 and Example 2 were preserved in glass bottles at 40° C., 75% RH with opened cap or at 60° C. with closed cap and the amount of benzoic acid remaining as compound (IA) was measured to evaluate the chemical stability.

SMILES: Cn1c(=O)cc(N2CCC[C@@H](N)C2)n(Cc2ccccc2C#N)c1=O [Comparative Example 1, 2-[[6-[(3R)-3-amino-1-piperidinyl]-3,4-dihydro-3-methyl-2,4-dioxo-1(2H)-pyrimidinyl]methyl]-benzonitrile]
- residual benzoic acid (40° C., 75% RH, opened bottle, 2 week storage product): 99.2%
- residual benzoic acid (60° C., closed bottle, 2 week storage product): 99.0%
- residual benzoic acid (Initial): 99.8%
